Experiments:
Assay in all cases: relative viability (nuclei count vs DMSO), 5 days (fraction); higher = more cells survive
[1] = test system: LCLC-103H
Method in brief: (§1)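 Lung cancer cell lines in 1536-well plates were dosed by pin tool the day after seeding, either with one drug alone or with a fixed anchor-drug dose plus five library-drug doses (not always all listed) in √10 steps. After 5 days, cells were fixed and their nuclei stained in one step (final 0.05% Triton X-100, 1% formaldehyde, 1 ug/ml Hoechst), then counted on 4× images. Relative viability is the nuclei count in treated wells divided by that in vehicle wells. Values are medians of duplicate plates.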

[2] = test system: EMC-BAC-2
Method in brief: as §1

[3] = test system: NCI-H596
Method in brief: as §1

[4] = test system: HCC-44
Method in brief: as §1

[5] = test system: SW 1573
Method in brief: as §1

[6] = test system: HCC-827
Method in brief: as §1

[7] = test system: NCI-H2087
Method in brief: as §1

[8] = test system: EKVX
Method in brief: as §1

[9] = test system: NCI-H2347
Method in brief: as §1

[10] = test system: BEN
Method in brief: as §1

[11] = test system: NCI-H1650
Method in brief: as §1

[12] = test system: EPLC-272H
Method in brief: as §1

[13] = test system: NCI-H1651
Method in brief: as §1

[14] = test system: A-427
Method in brief: as §1

[15] = test system: LXF-289
Method in brief: as §1

[16] = test system: NCI-H1915
Method in brief: as §1

[17] = test system: NCI-H460
Method in brief: as §1

[18] = test system: 201T
Method in brief: as §1

[19] = test system: NCI-H2126
Method in brief: as §1

[20] = test system: COR-L23
Method in brief: as §1

With O=c1[nH]c2ccccc2n1C1CCN(CCCC(c2ccc(F)cc2)c2ccc(F)cc2)CC1 [Pimozide] + CC(C)C[C@H](NC(=O)[C@H](Cc1ccccc1)NC(=O)c1cnccn1)B(O)O [Bortezomib] (partner 0.002 µM) the relative viability ([1]; first compound 0.08 µM) was 1, the relative viability ([1]; first compound 0.253 µM) was 1.07 and the relative viability ([1]; first compound 0.8 µM) was 0.877. The relative viability ([1]; first compound 2.53 µM) was 1.08, the relative viability ([1]; first compound 8 µM) was 1.12 and the relative viability ([2]; first compound 0.08 µM) was 0.992. The relative viability ([2]; first compound 0.253 µM) was 1.03, the relative viability ([2]; first compound 0.8 µM) was 0.972 and the relative viability ([2]; first compound 2.53 µM) was 1.04. It also gave a relative viability ([2]; first compound 8 µM) of 1.05, a relative viability ([3]; first compound 0.08 µM) of 0.974 and a relative viability ([3]; first compound 0.253 µM) of 0.968. The relative viability ([3]; first compound 0.8 µM) was 1, the relative viability ([3]; first compound 2.53 µM) was 0.994 and the relative viability ([3]; first compound 8 µM) was 0.935. It also gave a relative viability ([4]; first compound 0.08 µM) of 0.874, a relative viability ([4]; first compound 0.253 µM) of 0.788 and a relative viability ([4]; first compound 0.8 µM) of 0.856. It also gave a relative viability ([4]; first compound 2.53 µM) of 0.975, a relative viability ([4]; first compound 8 µM) of 0.877 and a relative viability ([5]; first compound 0.08 µM) of 1.09. It also gave a relative viability ([5]; first compound 0.253 µM) of 1.02, a relative viability ([5]; first compound 0.8 µM) of 0.898 and a relative viability ([5]; first compound 2.53 µM) of 0.894. The relative viability ([5]; first compound 8 µM) was 0.963, the relative viability ([6]; first compound 0.253 µM) was 0.943 and the relative viability ([6]; first compound 0.8 µM) was 0.918. It also gave a relative viability ([6]; first compound 2.53 µM) of 0.982, a relative viability ([6]; first compound 8 µM) of 1.04 and a relative viability ([7]; first compound 0.08 µM) of 0.86. The relative viability ([7]; first compound 0.253 µM) was 0.815, the relative viability ([7]; first compound 0.8 µM) was 0.764 and the relative viability ([7]; first compound 2.53 µM) was 0.765. For the same molecule, the relative viability ([7]; first compound 8 µM) was 0.585, the relative viability ([8]; first compound 0.253 µM) was 1.11 and the relative viability ([8]; first compound 0.8 µM) was 0.992. For the same molecule, the relative viability ([8]; first compound 2.53 µM) was 0.994, the relative viability ([8]; first compound 8 µM) was 0.937 and the relative viability ([9]; first compound 0.08 µM) was 1. The relative viability ([9]; first compound 0.253 µM) was 0.858, the relative viability ([9]; first compound 0.8 µM) was 0.748 and the relative viability ([9]; first compound 2.53 µM) was 0.955. The relative viability ([9]; first compound 8 µM) was 0.883, the relative viability ([10]; first compound 0.08 µM) was 0.678 and the relative viability ([10]; first compound 0.253 µM) was 0.81. The relative viability ([10]; first compound 0.8 µM) was 0.788, the relative viability ([10]; first compound 2.53 µM) was 0.867 and the relative viability ([10]; first compound 8 µM) was 0.976. The relative viability ([11]; first compound 0.08 µM) was 0.23, the relative viability ([11]; first compound 0.253 µM) was 0.204 and the relative viability ([11]; first compound 0.8 µM) was 0.188. For the same molecule, the relative viability ([11]; first compound 2.53 µM) was 0.177, the relative viability ([11]; first compound 8 µM) was 0.178 and the relative viability ([12]; first compound 0.08 µM) was 0.974. It also gave a relative viability ([12]; first compound 0.253 µM) of 1.04, a relative viability ([12]; first compound 0.8 µM) of 0.826 and a relative viability ([12]; first compound 2.53 µM) of 0.828. For the same molecule, the relative viability ([12]; first compound 8 µM) was 0.91, the relative viability ([13]; first compound 0.08 µM) was 0.903 and the relative viability ([13]; first compound 0.8 µM) was 0.993. The relative viability ([13]; first compound 2.53 µM) was 0.897, the relative viability ([13]; first compound 8 µM) was 0.972 and the relative viability ([14]; first compound 0.08 µM) was 0.947. It also gave a relative viability ([14]; first compound 0.253 µM) of 0.965, a relative viability ([14]; first compound 0.8 µM) of 0.965 and a relative viability ([14]; first compound 2.53 µM) of 0.956. The relative viability ([14]; first compound 8 µM) was 0.903, the relative viability ([15]; first compound 0.08 µM) was 0.989 and the relative viability ([15]; first compound 0.253 µM) was 0.966. It also gave a relative viability ([15]; first compound 0.8 µM) of 0.917, a relative viability ([15]; first compound 2.53 µM) of 0.94 and a relative viability ([15]; first compound 8 µM) of 0.865. The relative viability ([16]; first compound 0.08 µM) was 0.947, the relative viability ([16]; first compound 0.253 µM) was 0.908 and the relative viability ([16]; first compound 0.8 µM) was 0.537. The relative viability ([16]; first compound 2.53 µM) was 0.936, the relative viability ([16]; first compound 8 µM) was 0.918 and the relative viability ([17]; first compound 0.08 µM) was 1.09. For the same molecule, the relative viability ([17]; first compound 0.253 µM) was 0.933, the relative viability ([17]; first compound 0.8 µM) was 0.992 and the relative viability ([17]; first compound 2.53 µM) was 0.993. The relative viability ([17]; first compound 8 µM) was 1.04, the relative viability ([18]; first compound 0.08 µM) was 1.07 and the relative viability ([18]; first compound 0.253 µM) was 1.05. The relative viability ([18]; first compound 0.8 µM) was 1.02, the relative viability ([18]; first compound 2.53 µM) was 1.08 and the relative viability ([18]; first compound 8 µM) was 1.01. For the same molecule, the relative viability ([19]; first compound 0.08 µM) was 1.14, the relative viability ([19]; first compound 0.253 µM) was 1.1 and the relative viability ([19]; first compound 0.8 µM) was 1.1. For the same molecule, the relative viability ([19]; first compound 2.53 µM) was 1.11, the relative viability ([19]; first compound 8 µM) was 1.05 and the relative viability ([20]; first compound 0.08 µM) was 0.965. It also gave a relative viability ([20]; first compound 0.253 µM) of 0.945, a relative viability ([20]; first compound 0.8 µM) of 0.956 and a relative viability ([20]; first compound 2.53 µM) of 0.967. The relative viability ([20]; first compound 8 µM) was 0.964.
